Test [1] is described as follows: Cytotoxicity against Homo sapiens (human) L123 cells after 48 hr by MTT assay. The arrangement: unit not given here. Format: cell-based.
Test [2] has as its system Aspergillus flavus. The test is described as follows: Antifungal activity against Aspergillus flavus after 72 hr by broth microdilution method. Format: functional.
The test system of test [3] is Aspergillus fumigatus. Description: Antifungal activity against Aspergillus fumigatus after 72 hr by broth microdilution method. It counts as functional.
In test [4] the test system is Aspergillus flavus. The test is described as follows: Antifungal activity against Aspergillus flavus at 0.78 to 50 ug/ml after 72 hr by broth microdilution method. Format: functional.
Test [5] concerns Aspergillus fumigatus. Description: Antifungal activity against Aspergillus fumigatus at 0.78 to 50 ug/ml after 72 hr by broth microdilution method. Format: functional.
The subject of test [6] is Aspergillus niger. Description: Antifungal activity against Aspergillus niger at 0.78 to 50 ug/ml after 72 hr by broth microdilution method. It counts as functional.
Test [7] has as its system Providencia rettgeri. The test is described as follows: Antibacterial activity against Providencia rettgeri isolated from infected fish after 24 hr by broth microdilution method. Format: functional.
The test system of the next test is Bacillus cereus. Description: Antibacterial activity against Bacillus cereus MTCC 7350 after 24 hr by broth microdilution method. Format: functional. The settings on record: MTCC 7350, 24 h.
In test [8] the test system is Escherichia coli. The test is described as follows: Antibacterial activity against Escherichia coli ATCC 35218 after 24 hr by broth microdilution method. It counts as functional. The settings on record: ATCC 35218, 24 h.
The subject of test [9] is Salmonella typhi. Description: Antibacterial activity against Salmonella enterica subsp. enterica serovar Typhi ATCC 23564 after 24 hr by broth microdilution method. Format: functional. The settings on record: ATCC 23564, 24 h.
The subject of test [10] is Pseudomonas aeruginosa. Description: Antibacterial activity against Pseudomonas aeruginosa ATCC 15499 after 24 hr by broth microdilution method. It counts as functional. To be noted: ATCC 15499, 24 h.
For test [11], the system named is Staphylococcus aureus. Description: Antibacterial activity against Staphylococcus aureus ATCC 11632 after 24 hr by broth microdilution method. Format: functional. To be noted: ATCC 11632, 24 h.
In test [12] the test system is Aspergillus niger. The test is described as follows: Antifungal activity against Aspergillus niger after 72 hr by broth microdilution method. It counts as functional.
Test [13] deals with Salmonella typhi. Description: Antibacterial activity against Salmonella enterica subsp. enterica serovar Typhi ATCC 23564 at 0.78 to 50 ug/ml after 24 hr by broth microdilution method. Format: functional, organism-based.
In test [14] the test system is Pseudomonas aeruginosa. Description: Antibacterial activity against Pseudomonas aeruginosa ATCC 15499 at 0.78 to 50 ug/ml after 24 hr by broth microdilution method. Format: functional, organism-based.
For test [15], the system named is Providencia rettgeri. The test is described as follows: Antibacterial activity against Providencia rettgeri isolated from infected fish at 0.78 to 50 ug/ml after 24 hr by broth microdilution method. It counts as functional, organism-based.
Test [16] has as its system Escherichia coli. The test is described as follows: Antibacterial activity against Escherichia coli ATCC 35218 at 0.78 to 50 ug/ml after 24 hr by broth microdilution method. Format: functional, organism-based.
Test [17] relates to Staphylococcus aureus. The test is described as follows: Antibacterial activity against Staphylococcus aureus ATCC 11632 at 0.78 to 50 ug/ml after 24 hr by broth microdilution method. It counts as functional, organism-based.

Structures are written as SMILES. In brackets after ≈: the same amount, converted by molar mass. Activity calls are given as the source filed them. No cut-off for these calls is given here. A value given as a limit tells only on which side of the number the result lay.

`CCOC(=O)C1=C(C)N=C2Sc3ccccc3N2C1c1c(Cl)cccc1Cl` (configuration not stated): in test [1], the IC50 is listed as greater than 100. Besides, the MIC stood at 12.5 µg/mL (≈ 29.8 µM) against Aspergillus flavus [2]; 6.25 µg/mL (≈ 14.9 µM) against Aspergillus fumigatus [3]; 12.5 µg/mL (≈ 29.8 µM) with Providencia rettgeri [7]; 6.25 µg/mL (≈ 14.9 µM) against Bacillus cereus; 6.25 µg/mL (≈ 14.9 µM) against Escherichia coli [8]; 25 µg/mL (≈ 59.6 µM) in the test on Salmonella typhi [9]. Moreover, the minimal inhibitory concentration (MIC) against Pseudomonas aeruginosa [10] and against Staphylococcus aureus [11] was 12.5 µg/mL (≈ 29.8 µM) throughout. Also, the result in the test with Aspergillus flavus [4], with Aspergillus fumigatus [5] and with Aspergillus niger [6] was inactive.

Regarding `O=C(O)c1cn(C2CC2)c2cc(N3CCNCC3)c(F)cc2c1=O` [CIPROFLOXACIN], the minimal inhibitory concentration (MIC) was determined as 1.62 µg/mL (≈ 4.89 µM) in the test with Providencia rettgeri [7]; 1.62 µg/mL (≈ 4.89 µM) in the test on Bacillus cereus; 1.62 µg/mL (≈ 4.89 µM) against Escherichia coli [8]; 3.25 µg/mL (≈ 9.81 µM) against Salmonella typhi [9]; 1.62 µg/mL (≈ 4.89 µM) in the test on Pseudomonas aeruginosa [10]; 3.25 µg/mL (≈ 9.81 µM) with Staphylococcus aureus [11].

Regarding `CCOC(=O)C1=C(C)N=C2Sc3ccccc3N2C1c1ccc(OC)cc1` (configuration not stated), the IC50 in test [1] is greater than 100. Also, the minimum inhibitory concentration (MIC) with Aspergillus fumigatus [3] stood at 6.25 µg/mL (≈ 16.4 µM); with Aspergillus niger [12] it was 6.25 µg/mL (≈ 16.4 µM); against Providencia rettgeri [7] it was 6.25 µg/mL (≈ 16.4 µM); with Bacillus cereus, 6.25 µg/mL (≈ 16.4 µM); in the test on Escherichia coli [8], 6.25 µg/mL (≈ 16.4 µM); in the test on Salmonella typhi [9] it was 12.5 µg/mL (≈ 32.9 µM). The MIC in the test with Pseudomonas aeruginosa [10] and against Staphylococcus aureus [11] was 6.25 µg/mL (≈ 16.4 µM) each time. Moreover, the “inhibition zone (IZ)” value in the test with Aspergillus flavus [4] was 18 mm; in the test on Aspergillus fumigatus [5], 20 mm; in the test with Aspergillus niger [6], 16 mm.

Turning to `CCOC(=O)C1=C(C)N=C2Sc3ccccc3N2C1c1ccc(O)c(OC)c1` (configuration not stated), the result in the test with Salmonella typhi [13], in the test on Pseudomonas aeruginosa [14], in the test with Aspergillus flavus [4] and in the test with Aspergillus fumigatus [5] was inactive. Moreover, the IC50 in test [1] stood at 50. For the same compound, the minimal inhibitory concentration (MIC) came out at 6.25 µg/mL (≈ 15.8 µM) against Aspergillus niger [12]; 25 µg/mL (≈ 63.1 µM) with Providencia rettgeri [7]; 12.5 µg/mL (≈ 31.5 µM) against Bacillus cereus; 25 µg/mL (≈ 63.1 µM) against Escherichia coli [8]; 25 µg/mL (≈ 63.1 µM) against Staphylococcus aureus [11]. Further, in the test on Aspergillus niger [6], the “inhibition zone (IZ)” value stood at 10 mm.

Turning to `CCOC(=O)C1=C(C)N=C2Sc3ccccc3N2C1c1ccccc1` (configuration not stated), the result in the test on Providencia rettgeri [15], with Escherichia coli [16], in the test with Aspergillus flavus [4], in the test with Aspergillus niger [6] and in the test with Staphylococcus aureus [17] was inactive. Further, the IC50 in [1] is greater than 100. The minimum inhibitory concentration (MIC) in the test with Aspergillus fumigatus [3] came out at 6.25 µg/mL (≈ 17.8 µM); against Bacillus cereus, 12.5 µg/mL (≈ 35.7 µM); with Salmonella typhi [9] it was 25 µg/mL (≈ 71.3 µM); in the test on Pseudomonas aeruginosa [10], 25 µg/mL (≈ 71.3 µM). The “inhibition zone (IZ)” value with Aspergillus fumigatus [5] is listed as 10 mm.

Take `CCOC(=O)C1=C(C)N=C2Sc3ccccc3N2C1c1ccccc1O` (configuration not stated): the result with Salmonella typhi [13], in the test with Aspergillus fumigatus [5], in the test with Aspergillus niger [6] and in the test with Staphylococcus aureus [17] was inactive. In addition, the IC50 in [1] is greater than 100. The MIC was found to be 12.5 µg/mL (≈ 34.1 µM) in the test with Aspergillus flavus [2]; 12.5 µg/mL (≈ 34.1 µM) with Providencia rettgeri [7]; 6.25 µg/mL (≈ 17.1 µM) against Bacillus cereus; 12.5 µg/mL (≈ 34.1 µM) against Escherichia coli [8]; 25 µg/mL (≈ 68.2 µM) against Pseudomonas aeruginosa [10]. Also, in the test with Aspergillus flavus [4], the “inhibition zone (IZ)” value is reported as 11 mm.

As for `OC(Cn1cncn1)(Cn1cncn1)c1ccc(F)cc1F` [FLUCONAZOLE], the minimal inhibitory concentration (MIC) in the test on Aspergillus flavus [2], against Aspergillus fumigatus [3] and against Aspergillus niger [12] was 1.62 µg/mL (≈ 5.29 µM) in each case. In addition, the “inhibition zone (IZ)” value in the test on Aspergillus flavus [4] is on record as 25 mm; in the test on Aspergillus fumigatus [5], 22 mm; with Aspergillus niger [6] it was 18 mm.

For `CCOC(=O)C1=C(C)N=C2Sc3ccccc3N2C1c1ccc([N+](=O)[O-])cc1` (configuration not stated), in test [1], the IC50 is given as greater than 100. For the same compound, the minimal inhibitory concentration (MIC) was determined as 6.25 µg/mL (≈ 15.8 µM) with Aspergillus fumigatus [3]; 12.5 µg/mL (≈ 31.6 µM) in the test with Aspergillus niger [12]; 25 µg/mL (≈ 63.2 µM) against Providencia rettgeri [7]; 6.25 µg/mL (≈ 15.8 µM) against Bacillus cereus; 12.5 µg/mL (≈ 31.6 µM) against Escherichia coli [8]; 6.25 µg/mL (≈ 15.8 µM) with Salmonella typhi [9]. Moreover, the MIC with Pseudomonas aeruginosa [10] is 12.5 µg/mL (≈ 31.6 µM); against Staphylococcus aureus [11], 25 µg/mL (≈ 63.2 µM). Further, the result with Aspergillus flavus [4] was inactive. Also, the figures for the “inhibition zone (IZ)” value with Aspergillus fumigatus [5] and in the test with Aspergillus niger [6] were 15 mm and 17 mm, respectively.

For the compound `CCOC(=O)C1=C(C)N=C2Sc3ccccc3N2C1c1ccc(N(C)C)cc1` (configuration not stated), the IC50 in test [1] is recorded as greater than 100. In addition, the result in the test with Aspergillus flavus [4], in the test on Aspergillus fumigatus [5], with Aspergillus niger [6] and with Staphylococcus aureus [17] was inactive. The minimal inhibitory concentration (MIC) in the test with Providencia rettgeri [7] amounted to 12.5 µg/mL (≈ 31.8 µM); against Bacillus cereus it was 6.25 µg/mL (≈ 15.9 µM); against Escherichia coli [8], 12.5 µg/mL (≈ 31.8 µM); against Salmonella typhi [9], 12.5 µg/mL (≈ 31.8 µM); against Pseudomonas aeruginosa [10], 12.5 µg/mL (≈ 31.8 µM).

Regarding `CCOC(=O)C1=C(C)N=C2Sc3ccccc3N2C1c1ccc(O)cc1` (configuration not stated), the IC50 in test [1] came out at 50. Further, the MIC against Aspergillus niger [12] was found to be 6.25 µg/mL (≈ 17.1 µM); against Providencia rettgeri [7], 12.5 µg/mL (≈ 34.1 µM); against Bacillus cereus, 6.25 µg/mL (≈ 17.1 µM); in the test on Escherichia coli [8], 6.25 µg/mL (≈ 17.1 µM); against Salmonella typhi [9], 25 µg/mL (≈ 68.2 µM); in the test on Pseudomonas aeruginosa [10], 12.5 µg/mL (≈ 34.1 µM). In the test on Staphylococcus aureus [11], the lowest concentration to inhibit growth (MIC) was 12.5 µg/mL (≈ 34.1 µM). In addition, the result in the test with Aspergillus flavus [4] was inactive. In addition, the “inhibition zone (IZ)” value was 12 mm with Aspergillus fumigatus [5] and 15 mm in the test on Aspergillus niger [6].

Values taken from ChEMBL document CHEMBL3045107, “A facile green synthesis and in vitro antimicrobial activity 4H-pyrimido[2,1-b][1,3]benzothiazole derivatives using aluminum trichloride under solvent free conditions” (Med Chem Res, 2012).
